Biological target: Apolipoprotein(a) (Homo sapiens, UniProt P08519)
Test: Methods of ELISA Assay on Screening Lp(a) Assembly Inhibition
Procedure: 1) Added 100 μL of capture antibody to each well of a pre-coated ELISA plate and incubated overnight at 25° C.2) Added 300 μL of washing solution to each well and washed 5 times for 1 min each time.3) Added 100 μL of blocking solution to each well and incubated at 25° C. for 2 h.4) Added 300 μL of washing solution to each well and washed 5 times for 1 min each time.5) Added 100 μL of sample to each well and incubated at 25° C. for 1 h.6) Added 300 μL of washing solution to each well and washed 5 times for 1 min each time.7) Added 100 μL of detection antibody to each well and incubated at 25° C. for 1 h.8) Added 300 μL of washing solution to each well and washed 5 times for 1 min each time.9) Added 100 μL substrate solution (Color Reagent A: Color Reagent B, 1:1) to each well and incubated for 20 min at 25° C. in the dark.10) Added […] of stop solution to each well, gently blowed and sucked several times with the pipette tip, and read within 5 min.

Chain of Apolipoprotein(a) (P08519 whole entry): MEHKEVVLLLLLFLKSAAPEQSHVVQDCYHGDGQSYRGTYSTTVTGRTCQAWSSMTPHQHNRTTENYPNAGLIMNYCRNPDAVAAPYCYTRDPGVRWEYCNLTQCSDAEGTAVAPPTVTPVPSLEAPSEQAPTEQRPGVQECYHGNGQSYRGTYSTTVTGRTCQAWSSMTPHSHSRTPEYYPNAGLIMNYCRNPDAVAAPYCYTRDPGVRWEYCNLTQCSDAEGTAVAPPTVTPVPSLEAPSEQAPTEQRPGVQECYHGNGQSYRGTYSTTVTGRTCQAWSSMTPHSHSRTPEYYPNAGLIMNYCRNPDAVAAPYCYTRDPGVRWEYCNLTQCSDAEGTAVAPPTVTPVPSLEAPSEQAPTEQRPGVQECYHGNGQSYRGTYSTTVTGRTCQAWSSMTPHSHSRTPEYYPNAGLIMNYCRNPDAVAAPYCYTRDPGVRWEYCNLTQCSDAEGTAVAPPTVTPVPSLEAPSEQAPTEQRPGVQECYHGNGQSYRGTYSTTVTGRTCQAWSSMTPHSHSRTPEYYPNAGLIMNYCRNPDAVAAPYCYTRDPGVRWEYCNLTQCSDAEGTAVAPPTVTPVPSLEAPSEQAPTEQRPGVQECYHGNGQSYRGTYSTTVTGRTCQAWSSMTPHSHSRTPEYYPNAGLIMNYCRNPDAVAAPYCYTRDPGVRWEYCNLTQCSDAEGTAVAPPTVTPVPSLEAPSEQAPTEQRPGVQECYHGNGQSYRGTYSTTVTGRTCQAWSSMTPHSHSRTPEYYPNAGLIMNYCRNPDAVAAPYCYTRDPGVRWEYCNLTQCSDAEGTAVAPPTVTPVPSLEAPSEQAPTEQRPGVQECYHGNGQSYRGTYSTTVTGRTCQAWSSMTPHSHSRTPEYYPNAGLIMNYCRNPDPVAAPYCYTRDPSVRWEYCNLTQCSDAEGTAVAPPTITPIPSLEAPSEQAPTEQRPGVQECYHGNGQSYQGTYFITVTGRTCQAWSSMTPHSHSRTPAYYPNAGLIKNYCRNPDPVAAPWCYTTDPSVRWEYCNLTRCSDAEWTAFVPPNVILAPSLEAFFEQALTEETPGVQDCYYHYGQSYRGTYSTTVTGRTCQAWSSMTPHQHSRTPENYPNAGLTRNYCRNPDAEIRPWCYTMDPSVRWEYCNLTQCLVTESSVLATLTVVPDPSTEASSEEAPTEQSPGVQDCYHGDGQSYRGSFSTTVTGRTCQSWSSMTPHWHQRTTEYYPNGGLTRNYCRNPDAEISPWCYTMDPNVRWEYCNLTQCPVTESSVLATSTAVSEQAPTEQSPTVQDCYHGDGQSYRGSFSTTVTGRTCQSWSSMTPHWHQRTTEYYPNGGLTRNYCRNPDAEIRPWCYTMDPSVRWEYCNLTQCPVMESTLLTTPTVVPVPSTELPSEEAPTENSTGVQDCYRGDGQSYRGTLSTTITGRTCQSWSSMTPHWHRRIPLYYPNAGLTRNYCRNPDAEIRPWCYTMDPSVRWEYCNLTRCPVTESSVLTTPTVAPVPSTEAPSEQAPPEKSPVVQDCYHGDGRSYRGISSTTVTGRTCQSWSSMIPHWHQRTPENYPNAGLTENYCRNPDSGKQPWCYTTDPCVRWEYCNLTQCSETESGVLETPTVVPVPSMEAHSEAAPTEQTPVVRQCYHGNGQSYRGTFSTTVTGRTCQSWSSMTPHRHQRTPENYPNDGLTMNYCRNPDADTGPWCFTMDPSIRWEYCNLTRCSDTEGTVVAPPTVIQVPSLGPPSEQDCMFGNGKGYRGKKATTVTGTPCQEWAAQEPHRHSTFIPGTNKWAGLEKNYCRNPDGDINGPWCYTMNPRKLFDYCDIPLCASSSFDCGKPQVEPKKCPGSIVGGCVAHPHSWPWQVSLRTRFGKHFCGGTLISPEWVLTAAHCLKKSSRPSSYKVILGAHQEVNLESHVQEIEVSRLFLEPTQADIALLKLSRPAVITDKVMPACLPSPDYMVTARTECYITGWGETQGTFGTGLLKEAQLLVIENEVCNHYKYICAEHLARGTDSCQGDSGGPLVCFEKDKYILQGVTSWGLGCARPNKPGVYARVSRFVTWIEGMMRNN

`O=C(O)[C@@H](Cc1cc2cc(CN(Cc3ccc4oc(C[C@H](C(=O)O)[C@H]5CCNC5)cc4c3)Cc3ccc4oc(C[C@H](C(=O)O)[C@H]5CCNC5)cc4c3)ccc2o1)[C@H]1CCNC1` [US20250179055, Compound 127] was tested, and the IC50 was 0.9 nM.
